5 compounds from ChEMBL document CHEMBL1132766, “Synthesis and antiamoebic activity of new cyclooctadiene ruthenium(II) complexes with 2-acetylpyridine and benzimidazole derivatives” (Bioorg Med Chem Lett, 2000) can be followed below.

In brackets after ≈: the same amount, converted by molar mass.

The subject of the assay is Entamoeba histolytica. The assay is described as follows: Tested for antiamoebic activity against HK-9 strain of Entamoeba histolytica. Type of assay: functional, organism-based.
For orientation: IC50 means the midpoint of a concentration-inhibition curve. Consider `Cc1ncc([N+](=O)[O-])n1CCO` [METRONIDAZOLE], for which the IC50 stood at 0.33 µg/mL (≈ 1.93 µM). For `c1ccc(-c2nc3ccccc3[nH]2)nc1` the value was 0.42 µg/mL (≈ 2.15 µM); for `C/C(=N\N=C(/S)SCc1ccccc1)c1ccccn1`, 0.4 µg/mL (≈ 1.33 µM). For `CS/C(S)=N/N=C(\C)c1ccccn1` the value was 0.38 µg/mL (≈ 1.69 µM); for `C/C(=N\NC(N)=S)c1ccccn1`, 0.31 µg/mL (≈ 1.6 µM).
